{
  "source": "patent US5958947A",
  "about": "“DNA-affinic hypoxia selective cytotoxins” (priority 1996, dated 1999)",
  "key": {"V79 cells [1]": {"test_system": "V79 cells", "test": "Isoeffective to the oxygen dose (IsD)", "type": "cell-based, Chinese hamster", "conditions": "Cricetulus griseus; for EC (isoeffective to oxygen at 7.5 Gy): read-out: Isoeffective to the oxygen dose at 7.5 Gy: IsD(7.5); for EC (isoeffective to oxygen at 20 Gy): read-out: Isoeffective to the oxygen dose at 20 Gy: IsD", "source_text": "The survival fraction under hypoxic conditions (plotted versus compound concentration) meets the aerobic survival fraction (radiation toxicity) at the IsD. The IsD value is a useful indicator of the overall potency of a compound as a sensitizer and cytotoxin of hypoxic cells. IsD is especially useful when comparing different compounds for hypoxic cytotoxicity and radiosensitizing efficacy.\nFIGS. 5 and 6 illustrate the IsD at 7.5 Gy (FIG. 5A) and 20 Gy (FIG. 5B). FIGS. 5A and 6A include a comparison to the prior art NLA-1 compound. V79 cells were irradiated at 7.5 Gy or 20 Gy after a 1 hour exposure under hypoxia (symbols) or air (straight line), at various drug concentrations. No toxicity or radiosensitization for any tested compound was observed under aerobic conditions over the tested concentration ranges. IsD values were calculated from the intersections of the survival fractions of the hypoxic curves with the survival fraction in air. All data points in FIGS. 5 and 6 represent the mean of two replicate experiments."}, "[2]": {"test_system": "V79 Chinese hamster lung cells", "test": "Acute aerobic and hypoxic cytotoxicity (colony formation)", "type": "cell-based", "conditions": "for IC50: V79, 1 h, hypoxia, 50% inhibition of clonogenicity; for viability at 100 µM: 3.5 hours", "experimental": "(§1) Samples of V79 Chinese hamster lung cells used in the following experiments were prepared as follows. V79 cells, exponentially growing as monolayer cultures in RPMI 1640 medium (Mediatech) supplemented with 10% fetal calf serum, were trypsinized, centrifuged for 5 min, harvested, then suspended in 25 ml Erlenmeyer flasks fitted with rubber caps at 5×10^5 cells/ml (5 ml). Individual flasks either were shaken (100 rpm) at 37° C. under aerobic conditions or made hypoxic by gassing with a 95% N2 (nitrogen)/5% CO2 (carbon dioxide) humidified gas mixture for 1 hour.\n(§2) To determine the fraction of surviving cells, samples were removed, diluted and plated to provide 2×10^2 to 2×10^4 cells/well on 60 mm Linbro multi-well plates (Flow Laboratories, McLean, Virginia). The plates were incubated at 37° C. for 6 days, stained with crystal violet and examined for colony formation. Colonies of 50 cells or greater were counted. Each plotted point in FIGS. 1 and 2 represent the mean of three or four replicate experiments."}, "[3]": {"test": "Acute aerobic and hypoxic cytotoxicity (colony formation)", "type": "cell-based, Chinese hamster", "conditions": "chinese hamster, aerobic v79 cells, aerobic, 1 hour, 37° C.; for IC50 at 1 h: V79 cells, 50% inhibition of clonogenicity", "experimental": "as §1, §2"}, "human Topo II": {"test_system": "human Topo II", "test": "Topoisomerase II interaction (decatenation of kinetoplast DNA)", "type": "biochemical", "conditions": "up to 1 mM", "experimental": "A Topo II assay kit (TopoGEN, Inc., Columbus, Ohio) also was used to assay the topoisomerase II--THNLA-1 interaction. […] Individual reaction mixtures were heated for 30 minutes at 37° C. on a heating block, and then 2 μl of a 10% SDS-proteinase K solution was added to each reaction mixture. The resulting reaction mixtures then were heated for an additional 30 minutes at 37° C. After addition of a 0.1 volume of loading buffer, the reaction mixtures were extracted with CHCl3 prior to submarine electrophoresis on a 1% agarose gel containing ethidium bromide (0.5 μg/ml)."}, "supercoiled DNA": {"test_system": "supercoiled DNA", "test": "DNA intercalation by agarose gel electrophoresis (mobility of supercoiled DNA)", "type": "binding", "conditions": "electrophoretic gel, up to millimolar concentrations", "source_text": "An agarose gel electrophoresis technique was used to determine whether THNLA-1 intercalates DNA. Compounds that strongly intercalate DNA retard DNA mobility during agarose gel electrophoresis due to unwinding and extension of the dsDNA."}, "[4]": {"test_system": "V79 Chinese hamster lung cells", "test": "Radiosensitization of V79 cells", "type": "cell-based", "conditions": "for maximum SER value: hypoxic V79 cells, 100 μM for THNLA-1, non-toxic concentrations for others", "experimental": "as §1\nRadiosensitization studies were performed on V79 cells in a manner similar to the acute toxicity experiments, except that the survival fraction was determined after a predetermined radiation dose. […] One Gy is equal to 100 rads, wherein one rad is the quantity of ionizing radiation that results in the absorption of 100 ergs of energy per gram of irradiated material. Hypoxia was maintained throughout irradiation. […] Sensitization enhancement ratios (SER) were determined at a 10% survival level. […] The plotted points in FIGS. 3 and 4 represent the mean of 2 or 3 replicate experiments."}, "V79 cells [5]": {"test_system": "V79 cells", "test": "Chemosensitization to L-PAM or cis-DDP in V79 cells", "type": "cell-based, Chinese hamster", "conditions": "for chemosensitization to L-PAM or cis-DDP: V79 cells", "experimental": "L-PAM, also known as phenylalanine mustard and available from Sigma Chem. Co., St. Louis, Mo., first was dissolved in an ethanolic solution of HCl (0.5N). The ethanolic HCl solution was buffered with propylene glycol in a 1:9 ratio of ethanolic HCl solution to propylene glycol, and finally diluted 100 fold with suspension medium. cis-DDP, a platinum-based chemotherapeutic agent available from Sigma Chem. Co., St. Louis, Mo., was dissolved in water to a predetermined concentration.\nExperiments using a simultaneous addition of the sensitizer and chemotherapeutic agent for 1 hour at 37° C. under aerobic conditions were also performed.\nIn all experiments, controls for the hypoxic cytotoxicity of the sensitizer and the toxicity of the chemotherapeutic alone were included. Survival curves were normalized for the hypoxic cytotoxicity of sensitizer in order to determine the dose modification factor (DMF), i.e., the ratio of chemotherapeutic agent concentrations required to reduce cell survival to a predetermined level (e.g., 0.5) alone or in combination with a sensitizer. Synergism between the chemotherapeutic agent and the chemosensitizer was determined using the fractional product concept which is applied in instances of independent action of drugs, or by isobologramic analysis. The results of the chemosensitization studies are illustrated in FIGS. 12-15."}, "[6]": {"conditions": "Cricetulus griseus, V79 cells, 1 hour, 37° C."}},
  "note": "“Also recorded” adds a separate entry of the source. Counter-ions that a name gives are not always drawn. Like-named read-outs stand apart in the source and are kept apart here.",
  "data": [
    {"smiles": "O=[N+]([O-])c1nccn1CCCNc1c2c(nc3ccccc13)CCSC2", "note": "[S-THNLA-1, 10-[3-(2-nitroimidazolyl)propylamino]-3,4-dihydro-1-H-thiopyrano[4,3-b]quinoline hydrochloride]", "values": [
      {"measurement": "EC (isoeffective to oxygen at 7.5 Gy)", "setting": "V79 cells [1]; V79, 1 h", "value": 60, "unit": "µM"},
      {"measurement": "EC (isoeffective to oxygen at 20 Gy)", "setting": "V79 cells [1]; V79, 1 h", "value": "~103", "unit": "µM"},
      {"measurement": "IC50", "setting": "[2]; [6]", "value": 68, "unit": "µM"},
      {"measurement": "Hypoxic selectivity (differential aerobic/hypoxic toxicity): IC50/A,1h /IC50/H,1h", "setting": "[2]; V79 cells, 1 hour, 37° C.", "value": "about 9"},
      {"measurement": "IC50 at 1 h", "setting": "[3]", "value": 580, "unit": "µM"},
      {"measurement": "inhibition of Topo II-induced decatenation of kinetoplast DNA", "setting": "human Topo II", "value": "did not inhibit the action of Topoisomerase II on kinetoplast DNA"},
      {"measurement": "effect on mobility of supercoiled DNA", "setting": "supercoiled DNA", "value": "do not affect the mobility of supercoiled DNA"},
      {"measurement": "EC (SER 1.6)", "setting": "[4]; Cricetulus griseus, V79, 1 h, read-out: Hypoxic radiosensitizing potency: C1.6, concentration yielding an SER of 1.6, hypoxic V79 cells", "value": "40 to 45", "unit": "µM"},
      {"measurement": "EC (SER 1.6)", "setting": "[4]; Cricetulus griseus, V79, read-out: Intracellular concentration at C1.6: C1.6i, hypoxic radiosensitization, V79 cells (tables)", "value": 932, "unit": "µM"},
      {"measurement": "EC (SER 1.6)", "setting": "[4]; concentration yielding an SER of 1.6, hypoxic V79 cells, hydrochloride, read-out: Hypoxic radiosensitizing potency: C1.6", "value": 40, "unit": "µM"},
      {"measurement": "maximum SER value", "setting": "[4]", "value": "equal to OER"},
      {"measurement": "therapeutic index relative to NLA-1", "setting": "[4]; in vitro ThI", "value": "better therapeutic index than NLA-1"},
      {"measurement": "Therapeutic index (ThI): IC50/A,1h /C1.6", "setting": "[4]; in vitro, V79 cells", "value": "about 15"},
      {"measurement": "chemosensitization to L-PAM or cis-DDP", "setting": "V79 cells [5]", "value": "strong chemosensitizers"}
    ]},
    {"smiles": "Cl.O=[N+]([O-])c1nccn1CCCNc1c2c(nc3ccccc13)CCCC2", "note": "[THNLA-1, 9-[3-(2-nitro-1-imidazolyl)propylamino]-1,2,3,4-tetrahydroacridine hydrochloride]", "values": [
      {"measurement": "EC (isoeffective to oxygen at 7.5 Gy)", "setting": "V79 cells [1]; V79, 1 h, 7.5 Gy, 1 hour at 37° C.", "value": "~40", "unit": "µM"},
      {"measurement": "EC (isoeffective to oxygen at 20 Gy)", "setting": "V79 cells [1]; V79, 20 Gy, 1 hour at 37° C.", "value": "~78", "unit": "µM"},
      {"measurement": "IC50", "setting": "[2]; [6]", "value": "~33", "unit": "µM"},
      {"measurement": "IC90", "setting": "[2]; Cricetulus griseus, V79, hypoxic, 1 hour, 37° C., read-out: concentration to achieve a 10% survival fraction, hypoxic", "value": "~100", "unit": "µM"},
      {"measurement": "viability at 100 µM", "setting": "[2]; V79, aerobic, read-out: survival fraction, aerobic", "value": "~50", "unit": "%"},
      {"measurement": "viability at 100 µM", "setting": "[2]; V79, hypoxic, read-out: survival fraction, hypoxic", "value": "< 0.002", "unit": "%"},
      {"measurement": "IC50 at 1 h", "setting": "[3]", "value": "~360", "unit": "µM"},
      {"measurement": "IC90 at 1 h", "setting": "[3]; read-out: concentration to achieve a 10% survival fraction, aerobic", "value": "~475", "unit": "µM"},
      {"measurement": "inhibition of Topo II-induced decatenation of kinetoplast DNA", "setting": "human Topo II; hydrochloride", "value": "does not inhibit the Topo II-induced decatenation of KDNA even at very high concentrations; also recorded: did not inhibit decatenation of kinetoplast DNA"},
      {"measurement": "effect on mobility of supercoiled DNA", "setting": "supercoiled DNA", "value": "do not affect the mobility of supercoiled DNA"},
      {"measurement": "radiosensitization of hypoxic V79 cells", "setting": "[4]; 1 hour at 37° C. before irradiation, hypoxic", "value": "Significant radiosensitization"},
      {"measurement": "EC (SER 1.6)", "setting": "[4]; Cricetulus griseus, 1 h, concentration yielding an SER of 1.6, hypoxic V79 cells, read-out: Hypoxic radiosensitizing potency: C1.6", "value": 19, "unit": "µM"},
      {"measurement": "EC (SER 1.6)", "setting": "[4]; Cricetulus griseus, hypoxic radiosensitization, V79 cells (tables), read-out: Intracellular concentration at C1.6: C1.6i", "value": 443, "unit": "µM"},
      {"measurement": "EC (SER 1.6)", "setting": "[4]; Cricetulus griseus, hypoxic radiosensitization, V79 cells, read-out: Intracellular concentration for an SER of 1.6: C1.6i", "value": 443, "unit": "µM"},
      {"measurement": "radiosensitization when administered immediately after irradiation", "setting": "[4]; V79 cells (hypoxic conditions), hydrochloride", "value": "radiosensitization also was not observed; also recorded: No radiosensitization was observed"},
      {"measurement": "radiosensitization under aerobic conditions", "setting": "[4]; V79 cells, aerobic", "value": "Radiosensitization was not observed"},
      {"measurement": "radioprotection under aerobic conditions", "setting": "[4]; aerobic", "value": "no radioprotection occurred"},
      {"measurement": "maximum SER value", "setting": "[4]", "value": 3.1},
      {"measurement": "DMF value of L-PAM at 0.5 survival fraction", "setting": "V79 cells [5]; 10 μM THNLA-1, 2 hours hypoxic pretreatment, then L-PAM 1 hour aerobic", "value": 3.2},
      {"measurement": "DMF value of cis-DDP at 0.5 survival fraction", "setting": "V79 cells [5]; 15 μM THNLA-1, 2 hours hypoxic pretreatment, then cis-DDP 1 hour aerobic", "value": 4.2},
      {"measurement": "chemosensitization to L-PAM or cis-DDP", "setting": "V79 cells [5]; hydrochloride", "value": "powerful potentiator of chemotherapeutic agent toxicity; also recorded: strong chemosensitizers"},
      {"measurement": "potentiation of L-PAM or cis-DDP under aerobic conditions", "setting": "V79 cells [5]; aerobic exposure", "value": "no potentiation occurred"},
      {"measurement": "DMF compared with NLA-1", "setting": "V79 cells [5]; cis-DDP or L-PAM combination, about 30% of the IC50/H,1h, hydrochloride", "value": "slightly greater than the DMF value obtained using a combination including NLA-1; also recorded: significantly more efficacious chemosensitizer than NLA-1"},
      {"measurement": "interaction with L-PAM or cis-DDP", "setting": "V79 cells [5]; hypoxic pretreatment, isobologram and fractional product concept, hydrochloride", "value": "synergistic interaction; also recorded: dramatic decrease in survival fraction; also recorded: unexpected synergistic effect"}
    ]}
  ]
}
